Measured values from PubChem BioAssay AID857 (Vanderbilt High Throughput Screening Facility, 2007).
pEC50: −log10 of the molar value. Active and inactive are the calls of the source.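 The calls were made as follows: active = a full or partial dose-response curve in at least two of three replicate runs; inactive = the rest.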

Molecular target: D(1B) dopamine receptor (Homo sapiens) (UniProt P21918)
Test: dopamine D5 receptor modulation at EC30 dopamine, dose response, selectivity assay for D1 allosteric modulator project, cell-based, HEK293, CRE-luciferase, luminescence (AID 857);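 also: HEK 293 cells expressing human D5 with a CRE-driven luciferase reporter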

D(1B) dopamine receptor (Homo sapiens), sequence (P21918 whole entry, looked up): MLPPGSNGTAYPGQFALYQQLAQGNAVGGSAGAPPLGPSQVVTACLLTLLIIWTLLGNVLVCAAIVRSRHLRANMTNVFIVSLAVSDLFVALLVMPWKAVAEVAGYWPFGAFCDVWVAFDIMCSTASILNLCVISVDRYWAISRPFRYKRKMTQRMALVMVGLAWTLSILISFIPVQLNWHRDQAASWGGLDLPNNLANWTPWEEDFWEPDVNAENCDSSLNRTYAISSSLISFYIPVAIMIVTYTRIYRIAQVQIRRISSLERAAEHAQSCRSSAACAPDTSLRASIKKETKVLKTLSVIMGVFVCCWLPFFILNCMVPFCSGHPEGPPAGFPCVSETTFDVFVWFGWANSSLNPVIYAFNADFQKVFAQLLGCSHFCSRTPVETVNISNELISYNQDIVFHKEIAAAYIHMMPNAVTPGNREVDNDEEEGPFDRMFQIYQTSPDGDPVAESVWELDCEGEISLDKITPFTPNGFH

Compound	outcome	pEC50
COc1ccc(-c2noc(CCC(N)=O)n2)cc1OC	inactive	
COc1ncnc2c1N=C1CC(C)(C)CC(N)=C1S2	inactive	
Cc1ccc(-n2c(SCC(=O)OC(C)C)nnc2-c2cnccn2)cc1	inactive	
Cc1ccc(-c2cc(-c3ccc4c(c3)OCO4)c(C#N)c(N)n2)o1	inactive	
O=C1COc2ccc(C(=O)c3ccccc3)cc2CN1	inactive	
N#CC1=C(N)n2c(s/c(=C\c3ccco3)c2=O)=C(C#N)C1c1ccco1 (centres undefined)	inactive	
CCOC(=O)c1[nH]c2ccccc2c1NC(=O)C(C)(C)C	inactive	
Cc1nc(-c2ccc(S(=O)(=O)N3CCCCCC3)cc2)cs1	inactive	
CC1(C)Cc2c(C#N)c(NC3CCCCC3)nc(-c3ccco3)c2CO1	inactive	
COc1ccc2c(C(F)(F)F)cc(=O)oc2c1C	inactive	
CCOC(=O)C1=C(C)Nc2nc(SC)nn2C1c1ccc(C(=O)OC)cc1 (centres undefined)	inactive	
OCCn1nc2c3ccccc3nc-2n(-c2ccccc2)c1=S	inactive	
Cc1cc(C)nc(SCC(=O)N2CCCCC2)n1	inactive	
c1ccc2c(c1)CCCN2c1nc2ccccc2n2cnnc12	inactive	
c1ccc(Cn2nnc3c(N4CCc5ccccc54)ncnc32)cc1	inactive	
CCOC(=O)c1cc2c(=O)n3ccccc3nc2n(CCCOC)c1=NC(=O)c1cccnc1	inactive	
CCCn1c(=NC(C)=O)c(C(=O)OCC)cc2c(=O)n3ccccc3nc21	inactive	
CCN(CCCNC(=O)CN(C)S(=O)(=O)c1cccc2nsnc12)c1cccc(C)c1	inactive	
COc1ccc(CCN(C)C(=O)C2CCCN(Cc3ccc(OC)c(OC)c3)C2)cc1OC (centres undefined)	inactive	
CCOC(=O)c1c(C)oc2c1c(C=NCc1ccccn1)c(O)c1ccccc12	inactive	
COc1cccc(-c2nnc(SCC(=O)Nc3cc(C)on3)o2)c1	inactive	
C=CCn1c2ccccc2c2nnc(SCC(=O)NC(C(=O)OC)C(C)C)nc21 (centres undefined)	inactive	
Nc1nc2n(n1)C(c1ccccc1)CC(c1ccc(F)cc1)N2 (centres undefined)	inactive	
CC(C)Oc1ccccc1C1CC(=O)Nc2cc3c(cc21)OCCO3 (centres undefined)	inactive	
Cc1nnc(SCCn2c(N3CCCC(C)C3)nc3c2c(=O)[nH]c(=O)n3C)s1 (centres undefined)	inactive	
CC(=NCc1cccnc1)C1=C(O)c2ccccc2C1=O	inactive	
Cc1ccc(-c2nc3ncccn3c2NC(=O)C2CC2)cc1	inactive	

Compound	outcome	pEC50
CSC1=NCCN1C(=O)c1ccc(Br)o1	inactive	
COC(=O)c1ccc(CSc2nc3c(cnn3-c3ccc(F)cc3)c(=O)[nH]2)o1	inactive	
Clc1ccccc1Cn1nnc2c(N3CCCC3)ncnc21	inactive	
O=C1COc2ccccc2N1Cc1ccccc1Cl	inactive	
CC1(C)CN=C(Nc2nc3ccccc3s2)S1	inactive	
COc1ccccc1CNC(=O)c1ccc(NS(=O)(=O)c2c(C)noc2C)cc1	inactive	
CCN1C(=O)c2cccc3c(S(=O)(=O)Nc4ccccn4)ccc1c23	inactive	
COc1ccc(-c2coc3cc(O)ccc3c2=O)cc1OC	inactive	
CCOC(=O)C(C)Oc1cccc2c(=O)n(CC(=O)NCc3ccco3)ccc12 (centres undefined)	inactive	
COCCCNc1nc2ccccc2nc1NS(=O)(=O)c1cccs1	inactive	
CC1(C)CC(=O)C2=C(C1)OC(N)=C(C#N)C2c1cccc(OC(=O)c2ccco2)c1 (centres undefined)	inactive	
CSc1nc2oc3c(c2c2nncn12)CC(C)(C)SC3	inactive	
CS(=O)(=O)c1sc2nc(-c3cccs3)cc(-c3ccccc3)c2c1N	inactive	
COc1ccc(CN2CCN(S(=O)(=O)c3ccccc3)CC2)c(OC)c1	inactive	
NC(=O)c1c(NC(=O)CSc2nnc(-c3ccco3)n2-c2ccccc2)sc2c1CCC2	inactive	
CCc1nc2sc3ccccc3c(=O)c2c(=O)n1Cc1ccco1	inactive	
CCOC(=O)c1c(NC(=O)c2cccs2)sc(C)c1CC	inactive	
CCn1nc(C(=O)NC2=NCCS2)c2ccccc2c1=O	inactive	
Cc1ccc(Oc2ccccc2)c(NC=O)c1	inactive	
CCOC(=O)C(O)(CCC(O)(C(=O)OCC)C(=O)OCC)C(=O)OCC	inactive	
COCc1cc(C)nc2sc(C(=O)N3CCN(c4ccccc4)CC3)c(N)c12		6.67
Cc1cc(=O)c2n(Cc3ccc(Cl)cc3)nc[n+]2[nH]1	inactive	
CCOC(=O)c1[nH]cnc1C(=O)Nc1ccccn1	inactive	
COc1cccc(-c2nn3c(-c4cc(C)[nH]n4)nnc3s2)c1	inactive	
CCOC(=O)c1nn(-c2ccccc2C)c(=O)c(C#N)c1C	inactive	
COc1cccc(N2C(=O)C3ON(c4ccccc4)C(c4cccs4)C3C2=O)c1 (centres undefined)	inactive	
Fc1ccc(NC2=NCCS2)cc1Cl	inactive	

Compound	outcome	pEC50
Cn1c(=O)c2c(-c3ccccc3)n(N3CCOCC3)cc2n(C)c1=O	inactive	
COC(=O)c1cccc(S(=O)(=O)N2CCC(NC(=O)NC34CC5CC(CC(C5)C3)C4)CC2)c1	inactive	
N#Cc1c(N)nc(-c2ccccc2)nc1-c1ccccc1	inactive	
COC(=O)c1c(-c2ccccc2)csc1NC(=O)c1ccco1	inactive	
CCOC(=O)c1nn(-c2ccc(OC)cc2)c(=O)c2c(N)scc12	inactive	
O=C(CSc1nnc(COc2ccc(F)cc2)o1)N1c2ccccc2CCc2ccccc21	inactive	
COc1ccc(S(=O)(=O)Nc2ccc3c(c2)OCO3)cc1OC	inactive	
COc1ccccc1NC(=O)N(Cc1ccc2c(c1)OCO2)Cc1nc2ccccc2c(=O)[nH]1	inactive	
O=S(=O)(Nc1cc(Cl)ccc1N1CCCCC1)c1cccs1	inactive	
CCCCCn1c(N)c(C#N)c2nc3ccccc3nc21	inactive	
COc1ccc(-c2noc(COc3ccc4ccccc4c3Br)n2)cc1OC	inactive	
c1ccc(COc2nsnc2N2CCOCC2)cc1	inactive	
Cc1cc(N2CCN(S(=O)(=O)c3ccc4c(c3)OCCO4)CC2)n2ncnc2n1	inactive	
CCn1ncc(C2=NOC(C(=O)NCc3ccccc3)C2)c1C (centres undefined)	inactive	
CC(C)C1C(C#N)=C(N)Oc2n[nH]c(-c3ccccc3)c21 (centres undefined)	inactive	
C/C(=C\C(=O)c1ccccc1)Nc1cccc(O)c1	inactive	
COc1ccc(-c2c3c(=O)n(C)c(=O)n(C)c3cn2-c2ccccc2)cc1	inactive	
O=C(Nc1ncnc2sc3c(c12)CCCCC3)c1ccco1	inactive	
C=CCNC(=O)C1CC(c2cccc(OC)c2)=NO1 (centres undefined)	inactive	
CCOc1cc(C2CC(=O)NC(SCC)=C2C#N)ccc1O (centres undefined)	inactive	
CC(C)Cn1c(-c2cccs2)nc2nc3ccccc3nc21	inactive	
COc1ccc(NC(=O)c2ccc(NS(=O)(=O)c3c(C)noc3C)cc2)cc1OC	inactive	
CCOC(=O)N1CCN(C(=O)C(C)(C)Oc2ccc(Cl)cc2)CC1	inactive	
O=S1(=O)N=C(N2CCc3ccccc3C2)c2ccccc21	inactive	
COc1ccc(OC)c(NC(=O)CSc2nc3ccccc3c(=O)n2CCNC(C)=O)c1	inactive	
